Laboratory results published in article PMC5489165, “Identification of benzazole compounds that induce HIV-1 transcription” (PLoS ONE, 2017).

Legend:
HIV-1 RNA in U1 cells = test: HIV-1 transcription in U1 cells (qRT-PCR); assay type: cell-based; conditions: 30 μM, 24 h, qRT-PCR (Fig 3)
Experimental: (§1) ACH-2 cells were maintained in RPMI-1640 medium without phenol red and with 10% FBS at 37°C in a 5% CO2 atmosphere. Cells were plated at 5000/well in 96-well round-bottom plated and test compounds were added in a final concentration of 0.5% DMSO, in duplicate. Cells were incubated for 24 h at 37°C, 5% CO2, then pelleted at 2000 × g for 5 min followed by washing in 0.1 ml PBS. RNA was isolated using Invitrogen PureLink 96 RNA Purification Kit with vacuum manifold per the manufacturer’s instructions, including DNase I treatment. HIV-1 transcripts were detected using TaqMan® RNA-to-CT™ 1-step kit (Applied Biosystems, Foster City, CA) and primers/probe specific to gag (SK38 forward: 5ʹ-[…]-3ʹ; SK39 reverse: 5ʹ-[…]-3ʹ; SK19 probe: 5ʹ-6FAM […] TAMRA-3ʹ) or tat (forward: 5ʹ-[…]-3ʹ; reverse: 5ʹ-[…]-3ʹ; probe: 5ʹ-6FAM […]-3ʹ). GAPDH RNA was monitored in all assays as an endogenous control for selectivity using a pre-developed TaqMan assay reagent (Applied Biosystems, Foster City, CA). RNA was quantified on an Applied Biosystems 7900HT. PCR replicates were performed for each biological replicate. Viral RNA expression was normalized to GAPDH RNA and data are expressed as the change from vehicle-only control wells.
Fig 3 Compounds 1 and 2 induce HIV-1 transcription in ACH-2 and U1. […] RNA was prepared and HIV expression was monitored by qRT-PCR. […]

HIV-1 LTR = test: HIV LTR-driven Rluc reporter in HeLa cells; assay type: cell-based; conditions: transfected HeLa cells, 24 h
Source text: The vector pGL4.77[hRlucP/Hygro] encoding a Renilla luciferase gene including a PEST destabilization sequence, was purchased from Promega (Madison, WI). HIV-1 cDNA was generated from HIVIIIB virus using PureLink® Viral RNA/DNA Mini Kit (Invitrogen). The HIV-1 core promoter region (nucleotides -105 to 60) was amplified from HIVIIIB cDNA using primers designed with NheI (forward: 5ʹ-GCTAGCGGGACTTTCCGCTGGG-3ʹ) and XhoI (reverse: 5ʹ-CTCGAGAGTGGGTTCCCTAGTTAGCCA-3ʹ) flanking restriction site sequences. DNA fragments were generated using Platinum® Taq DNA Polymerase High Fidelity (Invitrogen) and fragment size was verified by electrophoresis using E-Gel® 1.2% agarose (Invitrogen). Fragments were cloned into pCR™2.1 TOPO® (Invitrogen), transformed into One Shot® TOP10 Chemically Competent E. coli (Invitrogen), and selected on LB-agar plates containing 100 μg/ml ampicillin. Individual colonies were grown in LB broth, DNA was isolated using QIAprep® Spin Miniprep Kit (Qiagen), and the inserted fragment was verified by EcoRI digestion followed by electrophoresis using E-Gel® 1.2% agarose (Invitrogen). To insert the HIV-1 LTR into the vector multiple cloning region, the resultant plasmids and pGL4.77[hRlucP/Hygro] were dually digested with NheI and XhoI (New England Biolabs), ligated using ExpressLink™ T4 DNA Ligase (Invitrogen), transformed into One Shot® TOP10 Chemically Competent E. coli (Invitrogen), and selected on LB-agar plates containing 100 μg/ml ampicillin. Clones were picked and DNA isolated using QIAprep® Spin Miniprep Kit (Qiagen) and the inserted fragment was verified by NheI/XhoI digestion followed by electrophoresis using E-Gel® 1.2% agarose (Invitrogen). The resultant plasmid, pGL4.77-LTR, was verified by sequencing at GENEWIZ (South Plainfield, NJ). […] Luciferase activity was quantified using Renilla Luciferase Assay System (Promega, Madison, WI) and results were normalized to the vehicle-treated control.

HIV-1 RNA in ACH-2 cells = test: HIV activation assay in ACH-2 model of latency (qRT-PCR); assay type: cell-based; conditions: 24 h; for Induction of HIV-1 transcription in ACH-2 cells (in words): 30 μM, qRT-PCR (Fig 3); for EC10X, ACH-2: concentration for 10-fold increase in HIV-1 RNA by qRT-PCR
Experimental: as §1

[1] = Protein binding, mouse plasma (ultrafiltration); assay type: in vitro ADME; conditions: mouse, plasma, pH 7.4
Experimental: Binding of test compound to plasma proteins was estimated by incubation of test compounds with mouse or human plasma. Human plasma was obtained from BioreclamationIVT (Westbury, NY). […] After a 15 min incubation at 37°C, triplicate aliquots of the incubation mixtures were transferred to a Millipore Multiscreen Ultracel-10 filter plate (10 kDa molecular mass cut off, EMD Millipore, Billerica, MA). The plate was centrifuged for 60 min at 3000 × g and 37°C. After centrifugation, aliquots of both the ultrafiltrates as well as the incubation mixtures prior to ultrafiltration were analyzed by LC-MS/MS to quantify the concentrations of test compound and reference compounds.

[2] = Microsome assay, mouse liver microsomes; assay type: in vitro ADME
Experimental: Human and mouse liver microsomes were obtained from XenoTech, LLC (Kansas City, KS). The reaction mixture was composed of liver microsomes (0.5 mg/mL), 20 mM Tris-HCl pH 7.4, 2.5 mM MgCl2, and an NADPH generating system (0.1 mM NADP, 1.2 mM glucose-6-phosphate and 0.3 units/ml glucose-6-phophate dehydrogenase). […] Test compounds were added to the microsome reaction and loss of parent molecule was monitored after 1 h by LC/MS/MS.

IL-2 secretion by PBMCs = test: IL-2 ELISA in PBMCs; assay type: cell-based, human; conditions: 24 h
Experimental: Cryopreserved PBMCs from a single donor were thawed in RPMI-1640 plus 10% FBS. PBMCs were plated at 5×10^4/well in 96-well plates and compound was added with a final concentration of 0.5% DMSO. Plates were incubated for 24 h at 37°C, 5% CO2. Interleukin-2 was quantified using Human IL-2 DuoSet ELISA (R&D Systems, Minneapolis, MN). Raw data were converted to ng/ml IL-2 using a standard curve obtained in parallel.

[3] = test system: Kaposi's sarcoma associated herpesvirus (KSHV) in BCP-1 cells; test: KSHV activation assay in BCP-1 cells (ORF50 qRT-PCR); assay type: cell-based; conditions: 24 h, up to 100 μM

| Compound | Induction of HIV-1 transcription in U1 cells (in words) (HIV-1 RNA in U1 cells) | Transcription driven by the HIV-1 LTR (in words) (HIV-1 LTR) | Induction of HIV-1 transcription in ACH-2 cells (in words) (HIV-1 RNA in ACH-2 cells) | EC10X, ACH-2 (HIV-1 RNA in ACH-2 cells) | fraction unbound at 15 min, 10 μM [1] | MLM stability (% loss of parent compound at 1 h) [2] | IL-2 secretion by PBMCs (in words) (IL-2 secretion by PBMCs) | Effect on ORF50 mRNA (KSHV) [3] |
| --- | --- | --- | --- | --- | --- | --- | --- | --- |
| Nc1ccc2[nH]c(-c3ccc(-c4nc5cc(N)ccc5o4)cc3)nc2c1 [Compound 1, 2-(4-(5-amino-1H-benzimidazol-2-yl)phenyl)benzoxazol-5-amine] | induced HIV-1 transcription | did not significantly increase transcription | induced HIV-1 transcription | 390 ± 120 nM | < 0.03 | 28% | neither Compound 1 nor 2 increased secretion of IL-2 | little effect |
| Nc1ccc2[nH]c(-c3ccc(-c4nc5ccc(N)cc5o4)cc3)nc2c1 [Compound 2] | induced HIV-1 transcription | did not significantly increase transcription | induced HIV-1 transcription | 970 ± 500 nM | < 0.025 | 53% | neither Compound 1 nor 2 increased secretion of IL-2 | little effect |
